In patent US7834024B2, “Compositions and methods for inhibition of the JAK pathway” (Rigel Pharmaceuticals, Inc., priority 2007, dated 2010):

What follows are compounds tested on Ramos B-Cell Line Stimulated with IL-4 (JAK-1 and JAK-3 / Stat-6, CD23) (assay: Assay for Ramos B-Cell Line Stimulated with IL-4 (CD23 upregulation, FACS)). Conditions: Homo sapiens, Ramos, human Ramos B cells, compound 1 hour, IL-4 50 units/mL for 20-24 hours, anti-CD23-PE FACS; read-out: Example 2 (IC50).
Assay type: cell-based
Source text: One means of assaying for such inhibition is detection of the effect of the 2,4-pyrimidinediamine compounds on the upregulation of downstream gene products. In the Ramos/IL4 assay, B-cells are stimulated with the cytokine Interleukin-4 (IL-4) leading to the activation of the JAK/Stat pathway through phosphorylation of the JAK family kinases, JAK1 and JAK3, which in turn phosphorylate and activate the transcription factor Stat-6. […] To study the effect of inhibitors (e.g., the 2,4-substituted pyrimindinediamine compounds described herein) on the JAK1 and JAK3 kinases, human Ramos B cells are stimulated with human IL-4. 20 to 24 hours post stimulation, cells are stained for upregulation of CD23 and analyzed using flow cytometry (FACS).
B-cells stimulated with cytokine Interleukin-4 (IL-4) activate the JAK/Stat pathway through phosphorylation of the JAK family kinases, JAK-1 and JAK-3, which in turn phosphorylate and activate the transcription factor Stat-6. […] To study the effect of inhibitors on the JAK family kinases, human Ramos B cells were stimulated with human IL-4.
Cells were maintained at a density of 3.5×10^5. The day before the experiment, Ramos B-cells were diluted to 3.5×10^5 cells/mL to ensure that they were in a logarithmic growth phase.
Cells were spun down and suspended in RPMI with 5% serum. 5×10^4 cells were used per point in a 96-well tissue culture plate. Cells were pre-incubated with compound or DMSO (Sigma-Aldrich, St. Louis, Mo., Cat No. D2650) vehicle control for 1 hour in a 37° C. incubator. Cells were then stimulated with IL-4 (Peprotech Inc., Rocky Hill, N.J., Cat No. 200-04) for a final concentration of 50 units/mL for 20-24 hours. […] Detection was performed using a BD LSR I System Flow Cytometer, purchased from Becton Dickinson Biosciences of San Jose, Calif.
With Cc1noc(COc2ccc(Nc3nc(Nc4ccc(CC#N)cc4)ncc3F)c(C)c2)n1 [Compound I-115, N2-(4-Cyanomethylphenyl)-5-fluoro-N4-[2-methyl-4-((3-methyl-1,2,4-oxadiazol-5-yl)methoxy)phenyl]-2,4-pyrimidinediamine] the IC50 was 258 nM. Compound CCc1cc(Nc2ncc(F)c(Nc3ccc(OCC#N)c(Cl)c3)n2)cc(C#N)c1Cl [Compound I-108, N2-(4-Chloro-3-cyano-5-ethylphenyl)-N4-(3-chloro-4-cyanomethoxyphenyl)-5-fluoro-2,4-pyrimidinediamine] has an IC50 of 1800 nM. Compound N#CCc1ccc(Nc2ncc(F)c(Nc3cccc(OCC(N)=O)c3)n2)cc1 [Compound I-65, N4-(3-Aminocarbonylmethoxyphenyl)-N2-(4-cyanomethylphenyl)-5-fluoro-2,4-pyrimidinediamine] has an IC50 of 189 nM. For C#CCOc1ccc(Nc2nc(Nc3cccc(C(N)=O)c3)ncc2F)cc1 [Compound I-6, N2-(3-Aminocarbonylphenyl)-5-fluoro-N4-[4-(2-propynyloxy)phenyl]-2,4-pyrimidinediamine], the IC50 was 2770 nM. With Cc1cc(Nc2nc(Nc3cccc(C(N)=O)c3)ncc2F)cc(C)c1OCC#N [Compound I-91, N2-(3-Aminocarbonylphenyl)-N4-(4-cyanomethoxy-3,5-dimethylphenyl)-5-fluoro-2,4-pyrimidinediamine] the IC50 was 333 nM. With Cc1cc(Nc2nc(Nc3ccc(CC#N)cc3)ncc2F)cc(C)c1OC(C)C#N (stereo not drawn) [Compound I-97, N4-[4-(1-Cyanoethoxy)-3,5-dimethylphenyl]-N2-(4-cyanomethylphenyl)-5-fluoro-2,4-pyrimidinediamine] the IC50 was 155 nM. Work on N#CCc1ccc(Nc2nc(Nc3cccc(C#N)c3)ncc2F)cc1 [Compound I-70, N4-(4-Cyanomethylphenyl)-N2-(3-cyanophenyl)-5-fluoro-2,4-pyrimidinediamine] yielded an IC50 of 1150 nM. For Cc1cc(Nc2nc(Nc3ccc(C(N)=O)cc3)ncc2F)ccc1OCC#N [Compound I-87, N2-(4-Aminocarbonylphenyl)-N4-(4-cyanomethoxy-3-methylphenyl)-5-fluoro-2,4-pyrimidinediamine], the IC50 was 44.4 nM. Work on CNC(=O)c1cc(Nc2ncc(F)c(Nc3cccc(OCC#N)c3)n2)ccc1N1CCN(C)CC1 [Compound I-55, N4-(3-Cyanomethoxyphenyl)-5-fluoro-N2-[3-methylaminocarbonyl-4-(4-methylpiperazin-1-yl)phenyl]-2,4-pyrimidinediamine] yielded an IC50 of 38.4 nM. For Cc1cnc(Nc2cccc(C#N)c2)nc1Nc1ccc2c(c1)NC(=O)CS2 [II-9, N2-(3-Cyanophenyl)-5-methyl-N4-(3-oxo-2H,4H-benzo[1,4]thiazin-6-yl)-2,4-pyrimidinediamine], the IC50 was 73.4 nM. Compound CNC(=O)COc1cccc(Nc2ncc(N)c(Nc3ccc4cn[nH]c4c3)n2)c1 [Compound V-4] has an IC50 of 1970 nM. Compound N#CCOc1ccc(Nc2nc(Nc3ccc(C(N)=O)cc3)ncc2F)cc1F [Compound I-101, N2-(4-Aminocarbonylphenyl)-N4-(4-cyanomethoxy-3-fluorophenyl)-5-fluoro-2,4-pyrimidinediamine] has an IC50 of 33.7 nM. Work on CN1CCN(C(=O)c2ccc(Nc3ncc(F)c(Nc4cccc(OCC(N)=O)c4)n3)cc2)CC1 [Compound I-48, N4-(3-Aminocarbonylmethoxyphenyl)-5-fluoro-N2-[4-((4-methylpiperazin-1-yl)carbonyl)phenyl]-2,4-pyrimidinediamine] yielded an IC50 of 913 nM. Compound Cc1cc(Nc2nc(Nc3ccc(C(N)=O)c(Cl)c3)ncc2F)ccc1N1CCN(C)CC1 [Compound I-11, N2-(4-Aminocarbonyl-3-chlorophenyl)-5-fluoro-N4-[3-methyl-4-(4-methylpiperazin-1-yl)phenyl]-2,4-pyrimidinediamine] has an IC50 of 56.3 nM. Compound Cc1cc(Nc2nc(Nc3ccc(CC#N)cc3)ncc2F)ccc1OC(C)C#N (stereo not drawn) [Compound I-94, N4-[4-(1-Cyanoethoxy)-3-methylphenyl]-N2-(4-cyanomethylphenyl)-5-fluoro-2,4-pyrimidinediamine] has an IC50 of 381 nM. For CC(C#N)Oc1ccc(Nc2nc(Nc3ccc(C(N)=O)cc3)ncc2F)cc1 (stereo not drawn) [Compound I-81, N2-(4-Aminocarbonylphenyl)-N4-[4-(1-cyanoethoxy)phenyl]-5-fluoro-2,4-pyrimidinediamine], the IC50 was 52.9 nM. In the case of CCc1cc(Nc2ncc(F)c(Nc3ccc(CC#N)cc3)n2)cc(C#N)c1Cl [Compound I-106, N2-(4-Chloro-3-cyano-5-ethylphenyl)-N4-(4-cyanomethylphenyl)-5-fluoro-2,4-pyrimidinediamine], the IC50 is reported as 7020 nM. CNC(=O)c1cc(Nc2ncc(F)c(Nc3ccc(OCC#N)cc3)n2)ccc1N1CCN(C)CC1 [Compound I-43, N4-(4-Cyanomethoxyphenyl)-5-fluoro-N2-[3-methylaminocarbonyl-4-(4-methylpiperazin-1-yl)phenyl]-2,4-pyrimidinediamine] gave an IC50 of 3.56 nM. Cc1nc(COc2ccc(Nc3nc(Nc4cccc(C(N)=O)c4)ncc3F)cc2)no1 [Compound I-57, N2-(3-Aminocarbonylphenyl)-5-fluoro-N4-[4-((5-methyl-1,2,4-oxadiazol-3-yl)methoxy)phenyl]-2,4-pyrimidinediamine] showed an IC50 of 292 nM. For N#CCc1ccc(Nc2ncc(F)c(Nc3ccc(CC#N)cc3)n2)cc1 [Compound I-71, N2,N4-Bis(4-cyanomethylphenyl)-5-fluoro-2,4-pyrimidinediamine], the IC50 was 195 nM. N#CCc1ccc(Nc2nc(Nc3ccc(C(N)=O)cc3)ncc2F)cc1 [Compound I-67, N2-(4-Aminocarbonylphenyl)-N4-(4-cyanomethylphenyl)-5-fluoro-2,4-pyrimidinediamine] gave an IC50 of 171 nM. N#CCOc1ccc(Nc2nc(Nc3ccc(CC#N)cc3)ncc2F)cc1Cl [Compound I-100, N4-(3-Chloro-4-cyanomethoxyphenyl)-N2-(4-cyanomethylphenyl)-5-fluoro-2,4-pyrimidinediamine] gave an IC50 of 83 nM. With CNC(=O)COc1cc(Nc2ncc(F)c(Nc3ccc4c(c3)NC(=O)C(F)(F)O4)n2)ccc1OC [II-34, N4-(2,2-Difluoro-3-oxo-4H-benzo[1,4]oxazin-6-yl)-5-fluoro-N2-[4-methoxy-3-(N-methylaminocarbonylmethoxy)phenyl]-2,4-pyrimidinediamine] the IC50 was 391 nM. For Cc1nc(COc2ccc(Nc3nc(Nc4ccc(C#N)cc4)ncc3F)cc2)no1 [Compound I-58, N2-(4-Cyanophenyl)-5-fluoro-N4-[4-((5-methyl-1,2,4-oxadiazol-3-yl)methoxy)phenyl]-2,4-pyrimidinediamine], the IC50 was 967 nM. With CN1CCN(c2ccc(Nc3ncc(F)c(Nc4ccc(OCC#N)cc4)n3)cc2C(N)=O)CC1 [Compound I-42, N2-[3-Aminocarbonyl-4-(4-methylpiperazin-1-yl)phenyl]-N4-(4-cyanomethoxyphenyl)-5-fluoro-2,4-pyrimidinediamine] the IC50 was 14 nM.

Same assay, conditions: human Ramos B cells, compound 1 hour, IL-4 50 units/mL for 20-24 hours, anti-CD23-PE FACS; read-out: Example 2 (IC50)
With CNC(=O)COc1cccc(Nc2ncc(C)c(Nc3ccc4c(c3)NC(=O)CO4)n2)c1 [II-5, 5-Methyl-N2-[3-(N-methylaminocarbonylmethyleneoxy)phenyl]-N4-(3-oxo-2H,4H-benzo[1,4]oxazin-6-yl)-2,4-pyrimidinediamine] the IC50 was 28.5 nM. With CNC(=O)COc1cc(Nc2ncc(F)c(Nc3ccc4c(c3)NC(=O)CS4)n2)cc(OC)c1OC [II-19, N2-[4,5-Dimethoxy-3-(N-methylaminocarbonylmethyleneoxy)phenyl]-5-Fluoro-N4-(3-oxo-2H,4H-benzo[1,4]thiazin-6-yl)-2,4-pyrimidinediamine] the IC50 was 95 nM. CNC(=O)COc1cccc(Nc2ncc(F)c(Nc3cc(OC)c(OC)c(OCC#N)c3)n2)c1 [Compound I-109, N4-(3-Cyanomethoxy-4,5-dimethoxyphenyl)-5-fluoro-N2-[3-(N-methylaminocarbonylmethyleneoxy)phenyl]-2,4-pyrimidinediamine] was tested, and the IC50 was 660 nM. In the case of “N2-[1-(2-(N-Morpholinyl)ethylaminocarbonyl)-1H-indol-6-yl]-N4-[4-(2-propynyloxy)phenyl]-2,4-pyrimidinediamine [VI-2]”, the IC50 is reported as 1010 nM. For CN1CCN(C(=O)c2cccc(Nc3ncc(F)c(Nc4ccc(OCC#N)cc4)n3)c2)CC1 [Compound I-40], the IC50 was 567 nM. Cc1cc(COc2ccc(Nc3nc(Nc4ccc(CC#N)cc4)ncc3F)cc2)no1 [Compound I-130, N2-(4-Cyanomethylphenyl)-5-fluoro-N4-[4-((5-methylisoxazol-3-yl)methyleneoxy)phenyl]-2,4-pyrimidinediamine] was tested, and the IC50 was 344 nM. Compound CCN(CC)CCNC(=O)c1ccc(Nc2ncc(F)c(Nc3ccc(OCc4ccccn4)cc3)n2)cc1 [Compound I-135, N2-[4-(2-(N,N-Diethylamino)ethylaminocarbonyl)phenyl)-5-fluoro-N4-[4-(2-pyridinylmethyleneoxy)phenyl]-2,4-pyrimidinediamine] has an IC50 of 56 nM. In the case of CN1CCN(C(=O)c2ccc(Nc3ncc(F)c(Nc4cccc(OCC(N)=O)c4)n3)cc2)CC1 [Compound I-49, N4-(3-Aminocarbonylmethoxyphenyl)-5-fluoro-N2-[4-((4-methylpiperazin-1-yl)carbonyl)phenyl]-2,4-pyrimidinediamine], the IC50 is reported as 2290 nM.
